Measured values: ChEMBL document CHEMBL3988442, “University of Dundee, Small-Polar-MMV Screening Library” (2021)
Values joined by “and” are separate entries in the source; they are usually repeats but may differ in a detail not shown here. Equal values may be shown once.

Key:
[1] = target: T1, Aspartate--tRNA(Asp/Asn) ligase (Mycobacterium tuberculosis (strain ATCC 25618 / H37Rv), UniProt P9WFW3); test: Assay for Asp RNA synthetase-1 from Mycobacterium tuberculosis; format: functional
T1 sequence (P9WFW3 whole entry): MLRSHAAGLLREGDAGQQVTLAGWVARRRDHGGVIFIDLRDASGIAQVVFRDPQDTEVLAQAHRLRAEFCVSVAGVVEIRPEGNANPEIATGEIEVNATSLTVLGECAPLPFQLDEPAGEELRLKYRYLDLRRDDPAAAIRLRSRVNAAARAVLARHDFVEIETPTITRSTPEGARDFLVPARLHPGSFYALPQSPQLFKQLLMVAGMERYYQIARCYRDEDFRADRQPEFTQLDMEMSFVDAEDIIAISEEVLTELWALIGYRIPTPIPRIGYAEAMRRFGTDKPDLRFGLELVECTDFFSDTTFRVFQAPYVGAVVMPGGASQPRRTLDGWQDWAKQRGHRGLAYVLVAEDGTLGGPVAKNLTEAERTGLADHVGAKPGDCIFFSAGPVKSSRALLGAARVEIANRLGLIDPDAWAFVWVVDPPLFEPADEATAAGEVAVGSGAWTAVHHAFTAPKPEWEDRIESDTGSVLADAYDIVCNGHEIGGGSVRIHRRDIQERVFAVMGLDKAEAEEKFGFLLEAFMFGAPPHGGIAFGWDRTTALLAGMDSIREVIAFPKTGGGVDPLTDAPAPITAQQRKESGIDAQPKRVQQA

Histidine--tRNA ligase [2] = target: T2, Histidine--tRNA ligase (Leishmania infantum, UniProt A4I591); test: Leishmania infantum Histidine tRNA synthetase (LdHisRS); format: functional
T2 sequence (A4I591 whole entry): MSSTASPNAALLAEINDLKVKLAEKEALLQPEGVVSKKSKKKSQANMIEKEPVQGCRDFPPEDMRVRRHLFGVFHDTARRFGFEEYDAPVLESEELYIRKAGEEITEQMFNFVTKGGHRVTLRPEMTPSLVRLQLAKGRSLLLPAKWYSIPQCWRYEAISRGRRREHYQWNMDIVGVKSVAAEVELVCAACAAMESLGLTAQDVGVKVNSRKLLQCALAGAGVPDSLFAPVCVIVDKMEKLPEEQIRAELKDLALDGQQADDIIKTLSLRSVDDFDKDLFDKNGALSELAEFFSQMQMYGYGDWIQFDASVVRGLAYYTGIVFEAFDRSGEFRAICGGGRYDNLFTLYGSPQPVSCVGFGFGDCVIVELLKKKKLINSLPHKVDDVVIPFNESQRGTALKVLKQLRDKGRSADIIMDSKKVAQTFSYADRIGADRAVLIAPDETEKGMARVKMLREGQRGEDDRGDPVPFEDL

[3] = target: T3, Tyrosyl-tRNA synthetase, putative (Trypanosoma cruzi (strain CL Brener), UniProt Q4DSP6); test: Trypanosoma cruzi tyrosyl tRNA synthetase (TcYRS) _High Tyrosine SOP; format: functional
T3 sequence (Q4DSP6 whole entry): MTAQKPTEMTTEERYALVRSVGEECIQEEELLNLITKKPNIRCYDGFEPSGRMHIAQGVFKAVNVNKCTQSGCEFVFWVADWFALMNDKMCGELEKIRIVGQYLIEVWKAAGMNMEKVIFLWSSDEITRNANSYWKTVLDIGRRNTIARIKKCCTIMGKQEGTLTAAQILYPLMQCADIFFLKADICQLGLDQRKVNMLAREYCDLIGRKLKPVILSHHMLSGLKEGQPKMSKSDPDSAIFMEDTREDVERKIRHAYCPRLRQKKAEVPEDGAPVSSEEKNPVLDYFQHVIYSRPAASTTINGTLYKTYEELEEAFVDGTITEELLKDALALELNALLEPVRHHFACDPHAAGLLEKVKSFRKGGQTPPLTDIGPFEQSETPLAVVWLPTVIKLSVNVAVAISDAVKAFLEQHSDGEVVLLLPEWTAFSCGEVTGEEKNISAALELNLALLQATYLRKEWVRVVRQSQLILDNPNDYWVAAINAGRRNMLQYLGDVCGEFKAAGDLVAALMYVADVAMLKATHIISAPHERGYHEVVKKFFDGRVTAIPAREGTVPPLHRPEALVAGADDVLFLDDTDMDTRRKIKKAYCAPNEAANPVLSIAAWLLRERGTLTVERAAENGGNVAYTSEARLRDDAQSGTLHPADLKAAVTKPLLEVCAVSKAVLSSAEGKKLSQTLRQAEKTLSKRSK

[4] = target: T3, Tyrosyl-tRNA synthetase, putative; test: Trypanosoma cruzi tyrosyl tRNA synthetase (TcYRS) SOP; format: functional
Leishmania donovani = test: Leishmania intramacrophage assay; format: functional, organism-based; settings: Leishmania donovani
[5] = target: Polyketide synthase Pks13 (Mycobacterium tuberculosis (strain ATCC 25618 / H37Rv), UniProt I6X8D2); test: Mycobacterium tuberculosis Polyketide synthase 13 Thioesterase (PKS13); format: functional
[6] = target: Chromo domain-containing protein 1 (Saccharomyces cerevisiae (strain ATCC 204508 / S288c) (Baker's yeast), UniProt P32657); test: ScCHD-1 Enzyme Inhibition Assay; format: functional
Proteasome subunit beta = target: T4, Proteasome subunit beta (Trypanosoma cruzi, UniProt O96673); test: Trypanosoma cruzi proteasome chymotrypsin-like activity (TcProtChymo) assay.; format: functional
T4 sequence (O96673 whole entry): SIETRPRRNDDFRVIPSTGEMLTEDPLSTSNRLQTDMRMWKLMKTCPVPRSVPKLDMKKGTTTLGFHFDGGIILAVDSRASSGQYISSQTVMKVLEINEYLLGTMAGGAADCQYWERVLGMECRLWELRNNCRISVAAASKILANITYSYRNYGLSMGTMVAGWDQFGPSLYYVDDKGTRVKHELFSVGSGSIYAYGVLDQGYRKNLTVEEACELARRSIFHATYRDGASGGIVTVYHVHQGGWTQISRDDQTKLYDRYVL

[7] = Trypanosoma cruzi proteasome luciferase counter-screen; format: functional, N/A
Lysine--tRNA ligase = Lysine--tRNA ligase (Plasmodium falciparum (isolate 3D7), UniProt Q8IDJ8); test: Pf-KRS-1 (Lysyl-RNA Synthetase-1, KRS-1, cytosolic KRS) from Plasmodium falciparum. Inhibitor assay, 384 well plate, luminescence read.; format: functional
Schistosoma mansoni = test: High throughput screening of compounds against Schistosoma mansoni motility; format: functional; parameters: dose or concentration left out as unconfirmed
Plasmodium falciparum = test: Calibr Malaria Delayed Death Assay SOP; format: functional, organism-based
Histidine--tRNA ligase [8] = target: T5, Histidine--tRNA ligase (Trypanosoma cruzi (strain CL Brener), UniProt Q4DA54); test: Trypanosoma cruzi histidyl tRNA synthetase (Tc-HisRS); format: functional
T5 sequence (Q4DA54 whole entry): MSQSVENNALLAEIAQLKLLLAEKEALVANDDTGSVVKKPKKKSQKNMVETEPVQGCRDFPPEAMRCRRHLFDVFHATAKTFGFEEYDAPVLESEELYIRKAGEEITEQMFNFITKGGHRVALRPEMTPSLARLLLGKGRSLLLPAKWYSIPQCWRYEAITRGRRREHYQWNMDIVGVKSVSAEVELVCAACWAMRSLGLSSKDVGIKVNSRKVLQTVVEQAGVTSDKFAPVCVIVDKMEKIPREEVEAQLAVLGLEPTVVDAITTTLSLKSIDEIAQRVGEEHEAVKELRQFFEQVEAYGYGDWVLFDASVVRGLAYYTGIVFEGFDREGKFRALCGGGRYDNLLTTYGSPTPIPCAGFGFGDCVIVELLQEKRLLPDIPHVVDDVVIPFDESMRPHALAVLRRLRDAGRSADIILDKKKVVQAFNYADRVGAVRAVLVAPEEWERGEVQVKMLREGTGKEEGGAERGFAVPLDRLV

[9] = target: Protein translocase subunit SecA (Escherichia coli (strain K12), UniProt P10408); test: Assay to Identify E. coli SecA ATPase Inhibitors; format: functional
Shiga toxin 2 = target: T6, Shiga toxin 2 (Escherichia coli O157:H7, UniProt P09385+P09386); test: E. coli 0.157:H7 Shiga Toxin SOP - stx2 screening assay; format: functional
T6 sequence (P09385 whole entry): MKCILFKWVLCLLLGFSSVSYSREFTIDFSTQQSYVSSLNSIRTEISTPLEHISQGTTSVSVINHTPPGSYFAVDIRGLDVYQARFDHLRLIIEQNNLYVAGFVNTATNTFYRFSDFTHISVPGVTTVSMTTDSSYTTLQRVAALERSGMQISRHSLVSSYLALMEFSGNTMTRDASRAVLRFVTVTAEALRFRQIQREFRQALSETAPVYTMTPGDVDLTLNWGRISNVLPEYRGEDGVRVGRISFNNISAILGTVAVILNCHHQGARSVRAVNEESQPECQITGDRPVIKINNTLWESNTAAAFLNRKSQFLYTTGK
T6 sequence (P09386 whole entry): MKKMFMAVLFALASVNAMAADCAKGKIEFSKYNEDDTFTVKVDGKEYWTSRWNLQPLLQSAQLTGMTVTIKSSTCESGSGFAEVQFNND

[10] = To identify inhibition of the IFN signalling (Jak-Stat) pathway via expression of an eGFP reporter gene under the control of an IFN-stimulated response element (ISRE) containing MxA promoter.; format: functional, Homo sapiens
[11] = microbe, parasite or virus in culture; settings: Mycobacterium tuberculosis, 96 h, read-out: pIC50 (converted)
[12] = microbe, parasite or virus in culture; settings: Mycobacterium tuberculosis, 72 h, read-out: pIC50 (converted)
[13] = In vitro enzyme assay to detect hydrolysis of chlorophenol red-beta-D-[…] directly proportional to the number of Toxoplasma stably expressing beta-galactosidase; format: functional, organism-based, Toxoplasma gondii; settings: Toxoplasma gondii

Sequence of Lysine--tRNA ligase (Q8IDJ8 whole entry): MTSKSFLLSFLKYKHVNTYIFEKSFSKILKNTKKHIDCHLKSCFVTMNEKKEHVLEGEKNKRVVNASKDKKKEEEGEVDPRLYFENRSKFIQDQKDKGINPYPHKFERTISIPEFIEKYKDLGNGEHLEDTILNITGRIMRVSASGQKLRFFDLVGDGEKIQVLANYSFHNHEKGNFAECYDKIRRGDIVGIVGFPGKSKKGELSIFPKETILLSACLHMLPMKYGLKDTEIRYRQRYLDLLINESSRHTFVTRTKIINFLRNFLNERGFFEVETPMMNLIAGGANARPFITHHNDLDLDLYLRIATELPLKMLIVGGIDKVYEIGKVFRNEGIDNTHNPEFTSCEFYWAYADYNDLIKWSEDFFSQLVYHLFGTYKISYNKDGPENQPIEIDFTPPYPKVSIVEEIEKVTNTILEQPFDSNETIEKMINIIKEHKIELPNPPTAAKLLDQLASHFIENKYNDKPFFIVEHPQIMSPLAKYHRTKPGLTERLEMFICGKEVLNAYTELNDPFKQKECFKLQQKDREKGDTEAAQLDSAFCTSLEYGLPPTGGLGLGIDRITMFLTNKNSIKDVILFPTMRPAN
Sequence of Protein translocase subunit SecA (P10408 whole entry): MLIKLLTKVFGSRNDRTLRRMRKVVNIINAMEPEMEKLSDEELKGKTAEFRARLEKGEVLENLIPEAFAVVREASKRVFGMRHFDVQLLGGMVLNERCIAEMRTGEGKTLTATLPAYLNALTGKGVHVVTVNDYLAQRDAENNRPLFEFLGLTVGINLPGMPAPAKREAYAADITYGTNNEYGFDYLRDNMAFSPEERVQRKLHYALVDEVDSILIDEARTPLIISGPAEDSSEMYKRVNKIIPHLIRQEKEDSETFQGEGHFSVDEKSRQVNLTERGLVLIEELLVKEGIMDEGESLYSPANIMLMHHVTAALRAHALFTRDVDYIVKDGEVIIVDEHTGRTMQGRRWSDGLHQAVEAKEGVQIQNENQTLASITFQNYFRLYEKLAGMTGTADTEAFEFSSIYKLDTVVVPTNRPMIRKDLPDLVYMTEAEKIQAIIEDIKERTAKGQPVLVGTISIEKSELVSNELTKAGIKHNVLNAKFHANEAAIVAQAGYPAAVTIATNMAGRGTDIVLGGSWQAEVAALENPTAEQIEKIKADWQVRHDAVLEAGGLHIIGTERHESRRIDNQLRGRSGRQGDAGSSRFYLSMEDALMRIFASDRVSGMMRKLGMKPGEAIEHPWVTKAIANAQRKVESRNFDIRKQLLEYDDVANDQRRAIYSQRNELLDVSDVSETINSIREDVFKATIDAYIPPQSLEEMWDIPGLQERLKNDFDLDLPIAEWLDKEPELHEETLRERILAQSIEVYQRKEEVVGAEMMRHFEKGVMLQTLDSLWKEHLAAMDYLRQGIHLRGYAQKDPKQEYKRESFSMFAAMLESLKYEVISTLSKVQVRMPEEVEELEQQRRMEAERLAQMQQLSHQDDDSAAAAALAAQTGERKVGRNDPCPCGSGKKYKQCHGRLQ
Sequence of Polyketide synthase Pks13 (I6X8D2 whole entry, the tested form may be a part): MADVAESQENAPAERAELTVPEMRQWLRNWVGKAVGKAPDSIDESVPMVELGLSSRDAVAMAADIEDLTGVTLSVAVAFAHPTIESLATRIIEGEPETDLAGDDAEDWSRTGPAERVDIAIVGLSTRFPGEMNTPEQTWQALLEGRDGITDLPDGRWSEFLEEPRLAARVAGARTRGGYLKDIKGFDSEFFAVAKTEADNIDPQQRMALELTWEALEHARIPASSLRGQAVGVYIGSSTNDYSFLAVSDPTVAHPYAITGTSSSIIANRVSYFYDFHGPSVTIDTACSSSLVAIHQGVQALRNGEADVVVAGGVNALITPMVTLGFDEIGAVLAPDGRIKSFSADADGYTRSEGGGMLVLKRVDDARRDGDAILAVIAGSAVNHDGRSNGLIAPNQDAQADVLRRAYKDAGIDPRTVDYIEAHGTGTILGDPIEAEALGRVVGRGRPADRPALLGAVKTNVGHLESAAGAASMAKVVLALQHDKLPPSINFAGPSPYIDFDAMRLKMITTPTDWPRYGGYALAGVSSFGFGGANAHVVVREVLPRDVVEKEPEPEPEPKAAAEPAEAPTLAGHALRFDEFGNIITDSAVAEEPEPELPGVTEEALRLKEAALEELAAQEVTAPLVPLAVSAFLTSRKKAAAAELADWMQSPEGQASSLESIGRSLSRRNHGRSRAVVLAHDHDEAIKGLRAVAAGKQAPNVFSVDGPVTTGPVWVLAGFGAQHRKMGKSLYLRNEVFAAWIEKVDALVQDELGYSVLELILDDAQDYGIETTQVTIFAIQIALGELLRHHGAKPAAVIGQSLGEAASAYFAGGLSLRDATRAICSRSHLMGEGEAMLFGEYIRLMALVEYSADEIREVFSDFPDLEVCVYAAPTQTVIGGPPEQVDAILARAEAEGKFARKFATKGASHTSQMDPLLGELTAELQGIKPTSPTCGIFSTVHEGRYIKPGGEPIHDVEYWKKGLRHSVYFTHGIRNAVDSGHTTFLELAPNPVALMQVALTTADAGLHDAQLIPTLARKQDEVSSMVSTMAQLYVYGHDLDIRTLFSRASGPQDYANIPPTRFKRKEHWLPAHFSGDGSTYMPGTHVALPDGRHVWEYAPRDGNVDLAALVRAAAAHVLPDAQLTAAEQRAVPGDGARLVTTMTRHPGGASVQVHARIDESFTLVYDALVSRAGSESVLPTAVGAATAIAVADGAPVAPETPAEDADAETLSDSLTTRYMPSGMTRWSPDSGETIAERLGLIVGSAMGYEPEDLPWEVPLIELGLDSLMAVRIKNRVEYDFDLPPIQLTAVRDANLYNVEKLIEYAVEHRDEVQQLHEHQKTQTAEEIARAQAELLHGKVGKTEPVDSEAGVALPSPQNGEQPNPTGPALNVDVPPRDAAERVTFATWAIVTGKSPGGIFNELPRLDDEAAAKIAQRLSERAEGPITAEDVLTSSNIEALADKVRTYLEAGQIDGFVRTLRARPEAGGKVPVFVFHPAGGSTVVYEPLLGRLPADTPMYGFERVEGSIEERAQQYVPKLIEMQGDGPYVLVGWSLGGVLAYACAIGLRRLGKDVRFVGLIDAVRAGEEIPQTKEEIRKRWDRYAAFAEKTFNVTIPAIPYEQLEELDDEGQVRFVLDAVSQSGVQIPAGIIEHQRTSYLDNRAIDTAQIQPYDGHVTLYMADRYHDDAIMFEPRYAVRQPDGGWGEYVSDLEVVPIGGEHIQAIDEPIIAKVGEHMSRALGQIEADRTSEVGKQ
Sequence of Chromo domain-containing protein 1 (P32657 whole entry, the tested form may be a part): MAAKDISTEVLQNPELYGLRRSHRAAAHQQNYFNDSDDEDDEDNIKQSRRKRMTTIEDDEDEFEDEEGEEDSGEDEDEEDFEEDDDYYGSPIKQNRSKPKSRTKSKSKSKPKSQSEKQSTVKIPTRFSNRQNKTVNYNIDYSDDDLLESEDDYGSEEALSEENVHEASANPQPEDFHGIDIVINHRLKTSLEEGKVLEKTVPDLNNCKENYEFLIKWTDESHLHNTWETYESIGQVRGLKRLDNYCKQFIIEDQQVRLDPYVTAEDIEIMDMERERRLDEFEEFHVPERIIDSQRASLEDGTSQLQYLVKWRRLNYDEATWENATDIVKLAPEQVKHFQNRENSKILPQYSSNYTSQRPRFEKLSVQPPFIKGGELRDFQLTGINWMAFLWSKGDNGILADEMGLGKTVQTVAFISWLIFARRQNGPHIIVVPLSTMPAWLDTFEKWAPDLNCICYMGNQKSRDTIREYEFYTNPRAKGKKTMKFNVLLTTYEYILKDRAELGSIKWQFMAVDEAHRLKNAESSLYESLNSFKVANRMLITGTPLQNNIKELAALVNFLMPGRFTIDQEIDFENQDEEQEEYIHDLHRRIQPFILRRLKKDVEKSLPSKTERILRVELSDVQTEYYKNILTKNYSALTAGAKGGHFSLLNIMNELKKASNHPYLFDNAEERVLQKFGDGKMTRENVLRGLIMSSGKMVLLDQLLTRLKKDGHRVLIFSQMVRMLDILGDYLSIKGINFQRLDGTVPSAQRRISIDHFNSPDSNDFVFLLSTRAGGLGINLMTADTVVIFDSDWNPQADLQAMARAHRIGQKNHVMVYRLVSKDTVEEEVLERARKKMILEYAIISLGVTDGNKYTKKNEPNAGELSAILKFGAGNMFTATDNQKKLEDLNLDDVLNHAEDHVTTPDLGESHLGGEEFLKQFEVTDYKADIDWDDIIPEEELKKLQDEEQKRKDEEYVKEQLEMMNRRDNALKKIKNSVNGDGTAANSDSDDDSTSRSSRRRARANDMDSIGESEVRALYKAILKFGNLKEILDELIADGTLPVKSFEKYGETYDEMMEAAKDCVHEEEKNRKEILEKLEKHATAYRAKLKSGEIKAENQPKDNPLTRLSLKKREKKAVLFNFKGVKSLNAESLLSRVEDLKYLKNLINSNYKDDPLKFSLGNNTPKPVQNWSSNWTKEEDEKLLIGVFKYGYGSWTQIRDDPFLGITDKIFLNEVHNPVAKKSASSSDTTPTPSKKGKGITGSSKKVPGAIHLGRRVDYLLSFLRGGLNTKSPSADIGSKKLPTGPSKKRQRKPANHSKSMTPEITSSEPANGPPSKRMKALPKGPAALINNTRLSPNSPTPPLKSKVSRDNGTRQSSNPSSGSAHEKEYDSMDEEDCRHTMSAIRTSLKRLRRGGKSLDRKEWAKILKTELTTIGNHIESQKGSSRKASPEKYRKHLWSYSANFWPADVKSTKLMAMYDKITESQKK

SMILES	IC50 (Histidine--tRNA ligase [2])	IC50 [3]	IC50 [4]	also measured
COCCN(C)C(=O)Cn1cccc(OC)c1=O	> 100 µM	–	–	IC50 [1]: > 100 µM
CNC(=O)[C@H]1CCS(=O)(=O)[C@@H]2CN(Cc3ccc(OC)cc3)C[C@H]12	–	> 100 µM	> 100 µM	–
CN(CC1CC1)c1ccc2ccc(C(=O)NCCN3CCOCC3)cn12	–	94.4 µM and > 100 µM	> 100 µM	IC50 (Leishmania donovani): > 50.1 µM
COCCN1C[C@@H]2CN(c3ncccn3)C[C@@H]2C1=O	–	> 100 µM	> 100 µM	IC50 [5]: > 100 µM; IC50 [6]: > 29.5 µM
CNC(=O)C1(c2cnccn2)CCCN1C(=O)c1ccn(C)n1 (stereo unspecified)	–	> 100 µM	> 100 µM	–
NC[C@H]1CC[C@H](C(NC(=O)c2cccc(F)c2)c2ccccn2)CC1 (stereo partly specified)	51 µM and 44.2 µM	> 100 µM and 87.7 µM	76 µM and > 100 µM	–
COc1ccc(C2SC(C)=Nc3c2c(=O)[nH]n3C2CCCCC2)cc1O (stereo unspecified)	–	> 100 µM	> 100 µM	–
CN1CCc2nc(C3CCN(C(=O)CCC4CCCC4)CC3)ncc2C1	–	45.5 µM and 43.7 µM	46.4 µM and 43.1 µM	IC50 (Proteasome subunit beta): > 100 µM; pIC50 [7]: < 4
CCn1nc2c(cc1=O)CN(Cc1nc(-c3ccccn3)no1)CC2	40 µM and 50.3 µM	–	–	IC50 [1]: > 100 µM; IC50 (Lysine--tRNA ligase): > 50.1 µM
CN(CCCOc1ccccc1)C(=O)CN1CCc2cncnc2C1	44 µM and 39.2 µM	> 100 µM	> 100 µM	–
Cn1nc2c(cc1=O)CN(CC(=O)Nc1ccc(Cl)cn1)CC2	19 µM and 22.2 µM	–	–	IC50 [1]: 90 µM and > 100 µM; Percent Effect (Schistosoma mansoni): -19.3%
Fc1ccc(OCc2noc(CN3CCc4cncnc4C3)n2)cc1	49.6 µM and 74.9 µM	> 100 µM	> 100 µM	–
Fc1cccc(Oc2ccc(CNCC3CNc4ccnn4C3)cn2)c1 (stereo unspecified)	> 100 µM	> 100 µM	> 100 µM	–
O=C(NC1CC1)c1ccc2ccc(N3CCN(CC4CC4)CC3)n2c1	–	41.1 µM and > 100 µM	> 100 µM	IC50 (Leishmania donovani): > 50.1 µM
Cc1cc(C)n(C2CN(CC(=O)N(C)Cc3ccc(C)o3)C2)n1	–	79.3 µM and 74.7 µM	75.8 µM and 72.1 µM	–
Cc1cccnc1NC(=O)NCc1ccc(N2CCNC(=O)C2)cc1	19.7 µM and 15 µM	52 µM and 31.6 µM	53.1 µM and 32.9 µM	–
Cn1nc2c(cc1=O)CN(Cc1nc(C(C)(C)C)no1)CC2	25.4 µM and 17.9 µM	–	–	IC50 [1]: > 100 µM; IC50 (Lysine--tRNA ligase): > 50.1 µM
O=C(O)C(F)(F)F.c1cnc(N2CCC3(CC2)CN(CC2CC2)c2ccccc23)nc1	9.51 µM and 9.98 µM	19.4 µM and 17.9 µM	16.3 µM and 16.2 µM	pIC50 (Plasmodium falciparum): 6.09; IC50 (Plasmodium falciparum; Plasmodium falciparum): 1.26 µM; IC50 (Histidine--tRNA ligase [8]): 32.3 µM and 19.9 µM
O=C(C1=CCCC1)N1C[C@H](Oc2cccnc2)[C@H]2OCCC[C@H]21	–	> 100 µM	> 100 µM	–
CC1(C)OCC(CNC(=O)c2cnn(-c3ccc(Cl)cc3)c2N)O1 (stereo unspecified)	–	–	–	IC50 [9]: > 100 µM; IC50 (Shiga toxin 2): > 100 µM
CC(C)NC(=O)N1CCN(CC2CC2)CC2(CC(=O)N(C)C2)C1 (stereo unspecified)	–	> 100 µM	> 100 µM	–
CC(=O)N1CCN(c2ccc3ccc(C(=O)NC4CCCC4)cn23)CC1	–	41.1 µM and > 100 µM	> 100 µM	–
Cc1noc(NC(=O)c2ccc(OC(F)(F)F)cc2)n1	–	–	–	pIC50 [10]: 5.092; IC50 [11]: 36.6 µM; IC50 (Proteasome subunit beta): 4.36 µM and 4.71 µM; IC50 [12]: 20 µM; IC50 [13]: 4.96 µM; IC50 (Shiga toxin 2): > 100 µM; pIC50 [7]: 5.158 and 4.98
O=C(NCc1ccccc1)N1CCC2(CC(=O)N(c3ccsc3)C2)C1 (stereo unspecified)	–	> 100 µM	> 100 µM	–
